Reference: patent US8962637B2, “Bicyclic compounds and their uses as dual c-SRC/JAK inhibitors” (Debiopharm S.A., priority 2010, dated 2015)

Assays:
Mda-Mb-231 cells = experiment: Cell viability assay (XTT assay), Mda-Mb-231; type: cell-based; conditions: Homo sapiens, 72 hrs
Procedure, shortened: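 MDA-MB-231 cells seeded and dosed next day in triplicate, incubated 72 h. Medium replaced with XTT working solution for 2-5 h, absorbance read at 465 nm, and EC50 values derived from the readings.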

[1] = MTD / tolerance in athymic mice; conditions: once-daily 14 days treatment in athymic mice
A549 cells = experiment: Cell viability assay (XTT assay), A549; type: cell-based; conditions: Homo sapiens, 72 hrs
Procedure: Next day compounds were added to cells and incubated for 72 hrs. Compound treatment was done in triplicates. After 72 hrs cell culture media was aspirated from the wells and XTT working solution was added and plates were incubated for 2-5 hrs. […] EC50 values were calculated using Graphpad Prism. Tumor cell lines used in the examples of the present invention were procured from ATCC. Description of the cell lines is included in the following table: […]

Volume distribution = conditions: in vivo
Description: Table 8 provides some volume distribution values of the compounds of the present invention.

pStat3 [2] = experiment: In-Cell-Western blot assay for pStat3 (ICW) in A431 cells; type: cell-based; conditions: Homo sapiens, A-431, 2 hrs, read-out: pSTAT3 inhibition
Procedure, shortened: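 Serum-starved (overnight) A431 cells treated with compound for 2 hrs, then fixed, permeabilized and probed with phospho-Stat3 antibody plus europium-labelled secondary. Europium signal normalized to Hoechst for cell number; IC50 calculated from normalized values.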

pStat3 [3] = experiment: Quantification of pStat3 in tumors by flow cytometry; type: in vivo, mice
Procedure: Measured pStat3 using FACS caliber machine (BD). Unstained PBMCs was used for cytometry settings. […] Histograms (cell number V/s FL1-H) were plotted. Percentage of cells that are phosphorylated by IL6 stimulation (M2 population), and inhibition of phosphorylation by inhibitor (decrease in M2 population) are calculated on histogram by marking peaks, M1 and M2.
Separate the tumour & 200 mg of tumour was crashed (45 mg per ml) by using IKA 10 at Speed #4 for 10 seconds. Sieve the tumour extract through 100 u, centrifuge at 900 g for 10 min. Re-suspend cells briefly in 0.5-1 ml PBS. Add formaldehyde to a final concentration of 2-4% formaldehyde. Fix for 10 minutes at 37° C. Chill tubes on ice for 1 minute.
Permeabilize cells by adding ice-cold 100% methanol slowly to pre-chilled cells, while gently vortexing, to a final concentration of 90% methanol. Alternatively, to remove fix prior to permeabilization, pellet cells by centrifugation and re-suspend in 90% methanol. Incubate 30 minutes on ice. Proceed with staining or store cells at −20° C. in 90% methanol. Aliquot 0.5-1×10^6 cells into each assay tube (by volume). Add 2-3 ml Incubation Buffer to each tube and rinse by centrifugation. Repeat. Re-suspend cells in 100 μl Incubation Buffer per assay tube. Analyze by flow cytometry like PBMCs.

JAK2 = JAK2 (Homo sapiens (Human), UniProt O60674); experiment: TR-FRET JAK2 kinase assay; type: biochemical; conditions: ATP 10 μM
Procedure: Compounds were screened in the TR-FRET assay for JAK2 and c-Src kinase inhibition. Ultra light poly GT (Perkin Elmer) was used as the substrate for JAK2 and c-Src with the ATP concentration of 10 μM and 50 μM, respectively. […] The dose-response curve fitting was done using GraphPad Prism software.

A431 cancer cell line = experiment: Inhibition of cell growth in A431; type: cell-based; conditions: Homo sapiens, A-431
B16F10 tumor cells = experiment: B16F10 metastasis model; type: in vivo, C57B16 mice; conditions: for Metastasis Inhibition: B16F10 model; for % metastasis inhib.: Efficacy - B16F10 at 100 MPK
Procedure: IV injection of 0.1×10^6 B16F10 tumor cells in the tail vain of 60 male C57B16 mice. Randomization of mice one day after tumor cell injection into 4 groups of 15 mice. Out of 15, 6 mice were sacrificed on 14th day for counting metastatic foci on lungs. Rest 9 mice were dosed continuously till morbidity/mortality for recording survival.
Formulation: 20% HPC, 2% ethanol solution in PBS for the compound No. 45
Plasma collected for drug concentration estimation and whole blood was collected to isolate PBMCs to determine pStat3 inhibition by flow cytometry as PD readout.

Chain of JAK2 (O60674 whole entry): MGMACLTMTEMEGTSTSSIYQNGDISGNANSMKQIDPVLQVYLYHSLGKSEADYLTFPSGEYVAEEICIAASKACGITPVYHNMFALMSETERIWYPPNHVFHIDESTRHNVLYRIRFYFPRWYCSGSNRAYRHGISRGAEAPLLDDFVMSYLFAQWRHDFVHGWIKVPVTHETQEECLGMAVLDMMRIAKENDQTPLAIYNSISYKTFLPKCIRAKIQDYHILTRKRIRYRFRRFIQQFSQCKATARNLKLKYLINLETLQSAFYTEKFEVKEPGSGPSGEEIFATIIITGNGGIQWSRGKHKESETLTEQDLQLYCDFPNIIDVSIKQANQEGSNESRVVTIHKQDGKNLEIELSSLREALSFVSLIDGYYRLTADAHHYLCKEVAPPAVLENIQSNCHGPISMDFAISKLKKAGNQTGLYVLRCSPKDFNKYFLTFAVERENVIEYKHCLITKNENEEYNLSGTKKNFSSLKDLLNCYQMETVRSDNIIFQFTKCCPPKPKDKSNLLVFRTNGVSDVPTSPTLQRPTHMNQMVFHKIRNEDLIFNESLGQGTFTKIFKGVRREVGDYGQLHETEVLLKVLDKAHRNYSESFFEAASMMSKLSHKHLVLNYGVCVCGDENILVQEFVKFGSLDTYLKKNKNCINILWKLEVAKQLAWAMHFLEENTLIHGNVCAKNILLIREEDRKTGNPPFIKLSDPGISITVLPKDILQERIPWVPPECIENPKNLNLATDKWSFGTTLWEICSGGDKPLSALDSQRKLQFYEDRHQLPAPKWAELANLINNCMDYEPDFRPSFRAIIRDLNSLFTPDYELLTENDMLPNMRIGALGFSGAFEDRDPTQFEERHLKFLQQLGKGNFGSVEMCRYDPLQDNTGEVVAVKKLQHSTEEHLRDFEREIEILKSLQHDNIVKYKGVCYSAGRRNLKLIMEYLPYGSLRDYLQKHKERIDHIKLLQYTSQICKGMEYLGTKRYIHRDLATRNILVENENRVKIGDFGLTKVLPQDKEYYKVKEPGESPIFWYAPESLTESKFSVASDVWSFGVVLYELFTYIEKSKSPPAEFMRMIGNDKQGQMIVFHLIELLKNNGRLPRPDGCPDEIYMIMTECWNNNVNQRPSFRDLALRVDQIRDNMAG

Compound: Cc1ccc(NC(=O)c2cccc(C(F)(F)F)c2)cc1N1CCc2nc(Nc3ccc(N4CCN(C)CC4)cc3)ncc2C1=O [Compound 45, N-(4-Methyl-3-{2-[4-(4-methyl-piperazin-1-yl)-phenylamino]-5-oxo-7,8-dihydro-5H-pyrido[4,3-d]pyrimidin-6-yl}-phenyl)-3-trifluoromethyl-benzamide]
- EC50 (Mda-Mb-231 cells): 1830 nM
- toxicity effects on major organs [1]: does not cause pronounced toxicity effects on major organs
- EC50 (A549 cells): 1070 nM
- Vd (Volume distribution): 5.89 L/kg
- IC50 (pStat3 [2]): 220 nM
- Tumors % pStat3 inhibition (pStat3 [3]; A431 Xenograft model, 100 MPK): 44.3%
- Tumors % pStat3 inhibition (pStat3 [3]; A549 Xenograft model, 10 MPK): 44.46%
- Tumors % pStat3 inhibition (pStat3 [3]; A549 Xenograft model, 30 MPK): 48.92%
- Tumors % pStat3 inhibition (pStat3 [3]; A549 Xenograft model, 100 MPK): 61.51%
- Tumors % pStat3 inhibition (pStat3 [3]; A549 Xenograft model, 150 MPK): 57.08%
- % pSTAT3 inhib. (tumour) (pStat3 [3]; Efficacy - A431 at 100 MPK): 45%
- % pSTAT3 inhib. (tumour) (pStat3 [3]; Efficacy - A549, at 100 MPK): 62% at
- IC50 (JAK2): 15 nM
- EC50 (A431 cancer cell line): 1400 nM
- anti-tumor activity (B16F10 tumor cells; B16F10 metastasis model): good anti-tumor activity
- reduction in metastatic counts on lungs (B16F10 tumor cells; B16F10 metastasis model, 100 MPK, Q1Dx14): 75%
- Metastasis Inhibition (B16F10 tumor cells; 30 MPK): 73%
- Metastasis Inhibition (B16F10 tumor cells; 100 MPK): 75%
- % metastasis inhib. (B16F10 tumor cells): 75%

Compound: Cc1ccc(NC(=O)c2cccc(C(F)(F)F)c2)cc1N1CCc2nc(Nc3ccc(C(=O)NC4CC4)nc3)ncc2C1 [Compound 117, 5-{6-[2-Methyl-5-(3-trifluoromethyl-benzoylamino)-phenyl]-5,6,7,8-tetrahydro-pyrido[4,3-d]pyrimidin-2-ylamino}-pyridine-2-carboxylic acid cyclopropylamide]
- EC50 (Mda-Mb-231 cells): 660 nM
- EC50 (A549 cells): 25 nM
- IC50 (pStat3 [2]): 340 nM
- % pSTAT3 inhib. (tumour) (pStat3 [3]; Efficacy - A431 at 100 MPK): 10%
- % pSTAT3 inhib. (tumour) (pStat3 [3]; Efficacy - A549, at 100 MPK): 47% at
- IC50 (JAK2): 18 nM
- EC50 (A431 cancer cell line): 330 nM
- % metastasis inhib. (B16F10 tumor cells): 26%

Compound: CNC(=O)c1ccc(Nc2ncc3c(n2)CCN(c2cc(NC(=O)c4cc(C(F)(F)F)ccn4)ccc2Cl)C3)cc1 [Compound 179, 4-Trifluoromethyl-pyridine-2-carboxylic acid {4-chloro-3-[2-(4-methylcarbamoyl-phenylamino)-7,8-dihydro-5H-pyrido[4,3-d]pyrimidin-6-yl]-phenyl}-amide]
- EC50 (Mda-Mb-231 cells): 900 nM
- IC50 (pStat3 [2]): 280 nM
- % pSTAT3 inhib. (tumour) (pStat3 [3]; Efficacy - A431 at 100 MPK): 54%
- % pSTAT3 inhib. (tumour) (pStat3 [3]; Efficacy - A549, at 30 MPK): 79% at
- IC50 (JAK2): 6.4 nM
- inhibition at 0.1 µM (JAK2; read-out: JAK2 % inhibition at 100 nM, 100 nM): 81%
- inhibition at 1 µM (JAK2; read-out: JAK2 % inhibition at 1 μM, 1 μM): 92%
- % metastasis inhib. (B16F10 tumor cells): 47%
